From PMC10835127, “Viruses traverse the human proteome through peptide interfaces that can be biomimetically leveraged for drug discovery” (Proceedings of the National Academy of Sciences of the …, 2024) come the findings set out here.

SMILES strings stand for the structures. Read-outs that look alike come from different tables or passages of the source.

A short description of data set [1]: in vivo. The following applies: male, Sprague Dawley, rat, 50 mg/kg, 50 mg/kg per os. As for the experimental part: For this molecule, both antiviral potency (IC50 of 3 nM) and PK properties were improved, with low clearance and high exposure in mouse plasma. […] The tissue distribution was also assessed at two different time points (2 and 24 h) after per os administration in mice (20 mg/kg) and rats (50 mg/kg) (Fig. 5C). […] Such low lung/plasma ratio precluded the use of dEF3122 in respiratory diseases such as influenza without further optimization.

A further data set addresses T1, MiNT (Homo sapiens, UniProt P0C7P0).
T1 construct: made in house; host or cells: E. coli
T1 sequence (P0C7P0 15-127): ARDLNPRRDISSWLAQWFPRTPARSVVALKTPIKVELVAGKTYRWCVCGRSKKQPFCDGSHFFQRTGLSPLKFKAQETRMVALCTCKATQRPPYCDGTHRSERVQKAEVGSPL
Nature of the data set: In vitro NEET [2Fe-2S] cluster release, MiNT. The class given is biochemical. The following applies: recombinant MiNT, 37 °C, absorbance 460 nm. As for the experimental part:
MitoNEET ([60]) and NAF-1 ([61]) cytosolic domains and MiNT ([62]) were purified from E. coli as previously published. Experiments were performed in 96-well plates at 37 °C with […] of Fe-S cluster in a buffer composed of 50 mM Tris-HCl pH 7 and 100 mM NaCl. dEF3122 was dissolved in dimethyl sulfoxide (DMSO) at 10 mM. CPEP31 was dissolved in PBS at 10 mM. After 20 min of incubation of the protein with the molecule, NEET cluster release was followed by measuring the absorbance at 460 and 800 nm over time using a plate reader (SpectraMax ID3). The absorbance at 460 nm was corrected for the variation of the baseline (absorbance at 800 nm) over time and normalized at 1 at the beginning of the kinetics.

For data set [2], the system named is diet-induced obese model of NASH. The experiment in a line: NASH mouse model (AMLN diet-induced obese). The class given is in vivo, C57BL/6JRj mice. The following applies: oral, 8 wk. How it is done: Fig. 6. Effect of the lead compound in a diet-induced obese model of NASH. Mice fed with a high fat, high fructose, and cholesterol supplemented diet for 38 wk were then treated in the last 8 wk with vehicle, dEF3122, or OCA (obeticholic acid) at indicated concentrations (n = 12 animals per group). (A and B) Histopathological mean score changes between the beginning and end of the treatment for liver portal inflammation (A) and liver portal fibrosis (B) are shown with representative stained liver sections of hematoxylin and eosin (H&E) and picrosirius red stains, respectively. (C–E) (C) Areas of kidney fibrosis at the end of the treatment are shown as % of the total area of the selected fields with representative sections of the kidney stained with picrosirius red. (D) % CD3 and (E) % F4/80 positive areas in kidneys with representative sections of CD3 and F4/80 immunostainings. *P < 0.05, **P < 0.01, and ***P < 0.001 from the T test with a preliminary nonsignificant Shapiro–Wilk test or from Wilcoxon signed–rank test otherwise.
Five-week-old male C57BL/6JRj mice were fed either chow diet or AMLN diet (40% total fat kcal of which 18.5% were trans-fat kcal, 20% fructose, and 2% cholesterol). This diet was maintained for 30 wk prior to study initiation. Three weeks prior to study initiation, liver biopsies were taken, and animals with steatosis grade <2 and fibrosis stage <1 were excluded from the study. Prior to the first administration of the test compound, stratified randomization of mice into treatment groups was performed according to collagen 1a1 (IHC) morphometry from the week 3 biopsies. Each treatment group consisted of 12 mice. For a total of 8 wk, compound dEF3122 was administered orally, twice daily at a concentration of 7 mg/kg or 20 mg/kg. OCA was administered orally, once daily at a concentration of 7 mg/kg. Animals were killed at the end of the treatment, and livers and kidneys were collected. […]
NASH histopathology and immunochemistry
Livers were fixed in 10 % neutral buffered formalin and paraffin-embedded; and sections were stained with H&E and picrosirius red to analyze their morphology. Histopathological analysis was performed by a pathologist blinded to the study. Fibrosis was evaluated by quantification of the picrosirius red positive areas. Inflammation was graded by counting the H&E positive inflammatory foci per field.
Kidneys were fixed in 4 % PFA and paraffin embedded. 4-μm sections were stained with picrosirius red. Images were acquired using a digital slide scanner (Nanozoomer S210 Digital Slide Scanner, Hamamatsu). Renal lesions were blindly examined by a renal pathologist. The extent of interstitial fibrosis was quantified using Image J software (NIH) on Sirius red scanned colored sections. In short, at least 20 random selected fields (original magnification, ×200) across the kidney cortex were analyzed per each kidney section, and the results were expressed as percentages of the total area of the selected fields.
For immunohistochemistry, 4-µm sections of paraffin-embedded kidneys were submitted for appropriate antigen retrieval by high pressure heating in a solution of Tris EDTA Tween or in a citrate solution. Then, sections were then incubated overnight at 4°C with the following antibodies: rabbit monoclonal anti-CD3 (Abcam, 1:100) and rat monoclonal anti- F4/80 (Biorad, 1:100). After washing, sections were incubated with appropriate amplification secondary antibody: biotin-coupled anti-rabbit (GE Healthcare) for CD3 and biotin-coupled anti-rat (Vector Laboratories) for F4/80, and then incubated with streptavidin coupled HRP (Southern). At the end, DAB (DAKO) staining was used to detect HRP. For quantification of CD3+ and F4/80+ renal cells, the degrees of cellular infiltrate were automatically quantified using ImageJ software (NIH) and expressed as a percentage of the surface area of the positive staining per field, in at least 10 random fields perp

A short description of data set [3]: in vivo. The following applies: male, CD1, mouse, 20 mg/kg, 20 mg/kg per os.
Another data set has as its system influenza A H1N1 virus. The experiment in a line: microbe, parasite or virus in culture. The following applies: H1N1, A549, read-out: Neuraminidase activity assay IC50.
The mark [4] stands for this setting: dEF3122 twice daily 7 or 20 mg/kg, OCA once daily 7 mg/kg, vs vehicle.

For the molecule `O=C(Nc1scc(C2CCc3ccccc3C2)c1C(=O)O)c1ccccc1` (stereo not drawn) [dEF3122], the Kp stood at 0.91 in “in vivo [1]” (2 h, read-out: Liver:Plasma Ratio); 0.11 in the data set “in vivo [1]” (2 h, read-out: Lung:Plasma Ratio); 0.78 in the data set “in vivo [1]” (24 h, read-out: Liver:Plasma Ratio); 0.18 in “in vivo [1]” (24 h, read-out: Lung:Plasma Ratio); 0.45 in the data set “in vivo [3]” (Liver:Plasma Ratio, 2 h); 0.88 in “in vivo [3]” (Liver:Plasma Ratio, 24 h). Further, the Kp in the data set “in vivo [3]” (Lung:Plasma Ratio, 2 h) came out at 0.12; in “in vivo [3]” (Lung:Plasma Ratio, 24 h) it was 0.13. Also, the “interaction by [2Fe-2S] cluster release assay” value on MiNT was “validated the interaction”. The “kidney interstitial lymphocytes infiltration (CD3)” value in data set [2] (twice daily 7 or 20 mg/kg) was “attenuated interstitial lymphocytes infiltration”. In data set [2] (twice daily 7 or 20 mg/kg), the “kidney macrophages infiltration (F4/80)” value was “but not macrophages infiltration”. The kidney fibrosis result in data set [2] (twice daily 7 or 20 mg/kg, picrosirius red) is “dramatically reduced fibrosis”. Also, the liver portal fibrosis result in data set [2] (setting [4]) is “resolved portal inflammation and fibrosis”. Moreover, the liver portal inflammation result in data set [2] (setting [4]) is on record as “resolved portal inflammation”. Moreover, the IC50 (usually the concentration that inhibits the measured activity by half) with influenza A H1N1 virus worked out at 3 nM.
